Among the data in patent US10143638B2, “Method of treating skin with ingenol mebutate” (LEO Laboratories Limited, priority 2009, dated 2018) are hyaluronan synthesis values, retold here.

SMILES strings stand for the structures.

For this experiment, the system named is dermal fibroblasts. Put plainly: Hyaluronan synthesis by dermal fibroblasts (Hyaluronic Acid Quantitative Test Kit). The format is cell-based, human. An excerpt: A normal adult skin biopsy (6 mm) was obtained (n=1), with informed consent, from an individual attending the Oral Surgery Clinic, School of Dentistry, Wales College of Medicine, Cardiff. Following the application of a local anaesthetic, the dermal biopsy was collected and adult dermal fibroblast cultures established by single cell suspension technique, following enzymic degradation of the specimen. This technique has previously been reliably used to establish viable primary cultures of both oral and dermal fibroblasts in vitro (Cook et al, 2000; Stephens et al, 2001; 2003). Dermal fibroblasts were cultured in Fibroblast-Serum Containing Medium, containing Dulbecco's Modified Eagle's Medium (DMEM), supplemented with L-glutamine (2 mM), antibiotics (100 U/ml) penicillin G sodium, […] streptomycin sulphate and 0.25 μg/ml amphotericin B) and 10% foetal calf serum (all purchased from Invitrogen Ltd., Paisley, U.K.). Dermal fibroblast cultures were maintained at 37° C., in a 5% CO2/95% air atmosphere, with the culture medium being changed every 2-3 days. Dermal fibroblasts were used between) passage 7-17, for all experiments.
Following trypsinization, dermal fibroblasts were seeded in 24-well tissue culture plates in PEP005-free, Fibroblast-Serum Containing Medium (1 ml), at a cell density of 2.5×10^4 cell/well. Dermal fibroblasts were maintained at 37° C., in a 5% CO2/95% air atmosphere, for 48 h, prior to maintenance in serum-free, Fibroblast-Serum Containing Medium (1 ml), for a further 48 h. At this stage, the serum-free, culture medium was replaced with Fibroblast-Serum Containing Medium (600 μl), containing 0 μg/ml, 0.01 μg/ml, 0.1 μg/ml, 1 μg/ml, 10 μg/ml or 100 μg/ml PEP005, +/−TGF-β1 (10 ng/ml) (three culture wells per PEP005 concentration). A control was also established, consisting of cells in serum-free, Fibroblast-Serum Containing Medium, containing 1% DMSO. The dermal fibroblasts were maintained at 37° C., in a 5% CO2/95% air atmosphere, for 24 h or 72 h, prior to culture medium removal. Hyaluronan synthesis in the collected culture media was quantified, using a Hyaluronic Acid Quantitative Test Kit (Corgenix U.K. Ltd., Cambridgeshire, U.K.), which utilizes a naturally occurring bovine binding protein to hyaluronan. Supernatants were assayed, as per manufacturer's instructions, and optical density measured using a spectrophotometer at 450 nm. Hyaluronan concentrations were determined by comparing the absorbance of the sample against a reference curve prepared from the reagent blank and standards. Each experiment was performed on three separate occasions.

`C/C=C(/C)C(=O)O[C@H]1C(C)=C[C@]23C(=O)[C@@H](C=C(CO)[C@@H](O)[C@]12O)[C@H]1[C@@H](C[C@H]3C)C1(C)C` [PEP005, ingenol-3-angelate]: the hyaluronan synthesis result is on record as “significant, stimulatory effect” (PEP005 0.01-10 μg/ml, absence of TGF-β1, 24 h, compared to untreated controls); “significant, stimulatory effect” (PEP005 0.01-100 μg/ml, absence of TGF-β1, 72 h, compared to untreated controls); “significant, synergistic effect” (PEP005 plus TGF-β1 (10 ng/ml), 24 h, compared to untreated controls and to PEP005 without TGF-β1).
